Assay results taken from ChEMBL document CHEMBL1909637, “Structure-activity relationship and enzyme kinetic studies on 4-aryl-1H-1,2,3-triazoles as indoleamine 2,3-dioxygenase (IDO) inhibitors” (Eur J Med Chem, 2011).
pIC50, pKi: −log10 of the molar value. Values belong to the molecule of their own block, whether it stands above or below them. Active and inactive are the calls of the source. No cut-off for these calls is given here.

Assays:
[1] = target: T1, Indoleamine 2,3-dioxygenase 1 (Homo sapiens, UniProt P14902); test: Inhibition of human recombinant indoleamine-2,3-dioxygenase expressed in Escherichia coli BL21 using L-tryptophan as substrate after 30 mins by microplate reader analysis; conditions: for pIC50: read-out: IC50
Target sequence in this assay (P14902 whole entry): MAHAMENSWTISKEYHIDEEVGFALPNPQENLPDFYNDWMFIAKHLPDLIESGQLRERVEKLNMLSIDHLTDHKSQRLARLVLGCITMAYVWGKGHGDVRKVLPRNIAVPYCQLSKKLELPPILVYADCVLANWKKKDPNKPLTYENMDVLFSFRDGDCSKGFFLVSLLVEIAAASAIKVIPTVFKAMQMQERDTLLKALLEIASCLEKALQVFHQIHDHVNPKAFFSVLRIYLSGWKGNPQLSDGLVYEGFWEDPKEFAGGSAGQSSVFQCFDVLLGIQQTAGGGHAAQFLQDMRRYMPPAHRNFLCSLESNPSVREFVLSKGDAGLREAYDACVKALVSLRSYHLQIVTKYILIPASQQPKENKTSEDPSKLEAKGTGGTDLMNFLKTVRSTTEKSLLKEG

[2] = target: T1, Indoleamine 2,3-dioxygenase 1; test: Uncompetitive inhibition of human recombinant indoleamine-2,3-dioxygenase expressed in Escherichia coli BL21 using L-tryptophan as substrate by Dixon plot analysis
Target sequence in this assay (P14902 whole entry): as above

[3] = target: T1, Indoleamine 2,3-dioxygenase 1; test: Inhibition of indoleamine-2,3-dioxygenase in human HEK293 cells assessed as N-formylkynurenine level after 5 hrs by spectrophotometric analysis; assay type: cell-based
Target sequence in this assay (P14902 whole entry): as above

[4] = target: T1, Indoleamine 2,3-dioxygenase 1; test: Reversal inhibition of human recombinant indoleamine-2,3-dioxygenase expressed in Escherichia coli BL21 using L-tryptophan as substrate by Dixon plot analysis
Target sequence in this assay (P14902 whole entry, looked up): as the sequence (P14902 whole entry) above

[5] = tested on: T-cell; test: Induction of BALB/c mouse LLC-stimulated T cell proliferation after 4 days by WST-1 method; assay type: functional, cell-based
[6] = target: T1, Indoleamine 2,3-dioxygenase 1; test: Ratio of IC50 for human recombinant indoleamine-2,3-dioxygenase expressed in Escherichia coli BL21 to IC50 for indoleamine-2,3-dioxygenase in human HEK293 cells
Target sequence in this assay (P14902 whole entry, looked up): as the sequence (P14902 whole entry) above

[7] = tested on: T-cell; test: Ratio of 1-methyl tryptophan to compound for induction of BALB/c mouse LLC-stimulated T cell proliferation; assay type: functional

pIC50 [1]: 2.86
SMILES: Ic1nn[nH]c1-c1ccccc1

pKi [2]: 4.84
pIC50 [3]: 4.71
pIC50 [1]: 4.07
SMILES: Clc1ccccc1-c1c[nH]nn1

pIC50 [1]: 3.09
SMILES: Clc1ccc(-c2c[nH]nn2)cc1

pIC50 [1]: 3.27
SMILES: O=[N+]([O-])c1ccc(-c2nn[nH]c2[N+](=O)[O-])cc1

IC50 [1]: Not Active
SMILES: On1nnc2ccccc21

pIC50 [1]: 2.90
SMILES: Brc1ccc(-c2c[nH]nn2)cc1

inhibition [4]: Active
SMILES: c1ccc(-c2cnn[nH]2)cc1
Activity [5]: Dose-dependent effect

IC50 [1]: Not Active
SMILES: Brc1nn[nH]c1-c1ccccc1

inhibition [4]: Active
Ratio IC50 [6]: 3
SMILES: Brc1ccccc1-c1cnn[nH]1
Activity [5]: Dose-dependent effect

pIC50 [1]: 2.59
SMILES: c1ccc2[nH]nnc2c1 [BENZOTRIAZOLE]

IC50 [1]: Not Active
SMILES: Cc1ccc(-c2c[nH]nn2)cc1

pKi [2]: 4.74
pIC50 [3]: 4.50
pIC50 [1]: 3.83
SMILES: Brc1ccccc1-c1c[nH]nn1

pIC50 [1]: 2.70
SMILES: CCOC(=O)c1cn(-c2ccc(Cl)cc2)nn1

pIC50 [1]: 2.99
SMILES: COc1ccccc1-c1c[nH]nn1

inhibition [4]: Active
Ratio IC50 [6]: 3
SMILES: Clc1ccccc1-c1cnn[nH]1
Activity [5]: Dose-dependent effect
Ratio [7]: 2

pIC50 [1]: 3.24
SMILES: Fc1ccc(-c2c[nH]nn2)cc1

pIC50 [1]: 2.22
SMILES: COc1ccc(-c2c[nH]nn2)cc1

pIC50 [1]: 3.15
SMILES: c1cncc(-c2c[nH]nn2)c1

IC50 [1]: Not Active
SMILES: COC(=O)c1ccc(-c2cnn[nH]2)cc1

pIC50 [1]: 2.99
SMILES: Cc1ccc(-c2[nH]nnc2Br)cc1

IC50 [1]: Not Active
SMILES: Clc1nn[nH]c1-c1ccccc1

IC50 [1]: Not Active
SMILES: Brc1ccc(-c2nn[nH]n2)cc1
